Reference: article PMC7252619 (PLoS ONE, 2020)
Like-named read-outs stand apart in the source and are kept apart here.

Target: T1, MST-4 (Homo sapiens, UniProt Q9P289)
T1 construct: purchased ReactionBiology
Assay: Kinase activity test (ReactionBiology), % enzyme activity relative to DMSO;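 further: marketed FDA-approved drugs screened at 10 µM and 1 µM against a ten-kinase panel, remaining activity given as percent of DMSO controls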
Type: biochemical
Conditions: MST4

[1] = Average, read-out: % Enzyme Activity (relative to DMSO controls), Average
[2] = replicate Data 1, read-out: % Enzyme Activity (relative to DMSO controls), Data 1
[3] = replicate Data 2, read-out: % Enzyme Activity (relative to DMSO controls), Data 2

T1 sequence (Q9P289 whole entry): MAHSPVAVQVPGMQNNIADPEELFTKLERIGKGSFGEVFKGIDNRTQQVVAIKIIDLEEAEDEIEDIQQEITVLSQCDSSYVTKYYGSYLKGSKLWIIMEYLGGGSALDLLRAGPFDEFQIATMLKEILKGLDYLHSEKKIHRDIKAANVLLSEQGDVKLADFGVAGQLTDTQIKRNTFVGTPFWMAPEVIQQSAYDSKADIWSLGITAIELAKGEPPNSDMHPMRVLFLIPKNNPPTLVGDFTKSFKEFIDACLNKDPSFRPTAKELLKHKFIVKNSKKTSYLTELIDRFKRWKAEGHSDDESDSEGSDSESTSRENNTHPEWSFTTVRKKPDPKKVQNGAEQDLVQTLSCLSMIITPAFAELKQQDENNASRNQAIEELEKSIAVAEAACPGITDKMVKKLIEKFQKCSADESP

remaining activity at 1 µM [1]: 91.7% | remaining activity at 1 µM [2]: 92.1% | remaining activity at 1 µM [3]: 91.2% | remaining activity at 10 µM [1]: 78.5% | remaining activity at 10 µM [2]: 69.9% | remaining activity at 10 µM [3]: 87.1%
SMILES: Nc1ncnc2c1ncn2[C@@H]1O[C@H](CO)[C@@H](O)[C@H]1O [Adenosine, reference compound]
